Columns and labels:
[1] = molecular target: T1, M4 muscarinic receptor (Homo sapiens, UniProt P08173); experiment: Functional mobilization of intracellular calcium (FLIPR) in CHO cells expressing M4 muscarinic receptor; assay type: cell-based; settings: for Emax: CHO, 100% efficacy is the maximum response obtained with the Carbachol control; for M4 Activity: CHO cells expressing M4, calcium mobilization
T1 construct: expressed in transfected cells; host or cells: CHO (M4-CHO recombinant cell line)
T1 sequence (P08173 1-479): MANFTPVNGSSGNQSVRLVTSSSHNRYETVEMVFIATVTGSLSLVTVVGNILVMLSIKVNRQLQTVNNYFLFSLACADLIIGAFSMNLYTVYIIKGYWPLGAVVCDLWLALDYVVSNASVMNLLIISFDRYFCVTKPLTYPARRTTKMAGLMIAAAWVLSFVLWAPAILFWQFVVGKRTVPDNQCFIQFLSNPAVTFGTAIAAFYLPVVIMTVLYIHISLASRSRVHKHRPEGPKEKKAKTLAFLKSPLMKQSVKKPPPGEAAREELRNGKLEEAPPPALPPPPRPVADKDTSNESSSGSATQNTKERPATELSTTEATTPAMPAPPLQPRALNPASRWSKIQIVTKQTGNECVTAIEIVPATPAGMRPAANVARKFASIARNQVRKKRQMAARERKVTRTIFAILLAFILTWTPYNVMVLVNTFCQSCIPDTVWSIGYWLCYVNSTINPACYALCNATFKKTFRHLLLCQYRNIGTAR
Experimental: (§1) VI. Assays for Detecting and Measuring Inhibition Properties of Compounds Functional Mobilization of Intracellular Calcium to Determine Muscarinic Receptor Activity:
(§2) CHO cells expressing muscarinic receptors (M1 to M5) are grown as monolayers in tissue culture flasks at 37° C. in a humidified atmosphere containing 5% CO2 and passaged every 3-5 days. The growth media is Dulbecco's modified eagles medium (DMEM, Gibco Cat# 12430-054), containing 25 mM Hepes and supplemented with Fetal Bovine Serum (Hyclone, cat# SH30071.03), 0.1 mM of MEM non-essential amino acids (GIBCO, Cat# 11140-050), 1 mM MEM Sodium Pyruvate (GIBCO Cat# 11360-070) and 100 units/ml of Penicillin G and 100 μg/ml of Streptomycin (GIBCO Cat# 15140-122). The recombinant muscarinic receptor cell lines are grown under antibiotic pressure with media containing 25 μg/ml zeocin and 500 μg/ml G418 (M1-CHO), 4 μg/ml puromycin, 50 μg/ml zeocin and 2.5 μg/ml blasticidin (M2 and M4-CHO) or 50 μg/ml zeocin and 4 μg/ml puromycin (M3 and M5-CHO).
(§3) Cells are harvested at 80-90% confluence using Versene (GIBCO Cat# 15040-066), collected by centrifugation and seeded 18-24 hours prior to running the calcium assay at a density of 5,000-10,000 cells/well in […], clear-bottomed 384-well plates (BD Biocoat, poly-D-lysine, Cat#356663). The day of the experiment, the cells are washed with a plate washer (Bioteck Instruments, ELX 405) using bath buffer (140-mM NaCl, 4.5-mM KCl, 2-mM CaCl2, 1-mM MgCl2, 10-mM Hepes-Na, 10-mM Glucose, pH 7.4, with NaOH) containing 1 mM Probenecid. Next, the calcium dye Fluo-3 (25 μl/well of Fluo-3 μM at 4 μM, Molecular Probes F-1241, in Bath 1 buffer containing 1 mM Probenecid) is added to the 25 μl of Bath 1 remaining in each well after the plate wash and the dye is loaded at 37° C. in the tissue culture incubator for 60-90 min. The fluorescent dye is removed using the plate washer with Bath 1 containing 1 mM Probenecid, leaving 25 μl/well of this solution after the wash. Alternatively, cells can be loaded with the calcium indicator from Molecular Devices (Calcium 3 Assay Reagents, Cat # R7181) adding 5 μl of a 5× solution dye in Bath 1 containing 1 mM Probenecid (10 ml per dye flask cat# R7182 to generate a solution 20×) to 20 μl of the same buffer. After loading for 60 min, the experiment can be run without having to remove the dye.
(§4) Compounds are prepared at a 2× fold concentration in a 96-well plate (round bottom, Costar Corning cat# 3656), by reconstituting the pre-spotted compounds in bath 1 containing 1 mM probenecid. The final concentration DMSO is 0.5%, and the amount of DMSO is normalized across the assay plate. To determine an agonist action of the compounds on muscarinic receptors, the reconstituted compounds are added (25 μl compound/well) to the cell assay plate (containing 25 μl/well) using the multi-channel robotic system of the FLIPR 3 Instrument (Molecular Devices, Sunnyvale, Calif.). To determine a functional inhibitory-action of the compounds on muscarinic receptors, the reconstituted compounds are added (25 μl compound/well) to the assay plate and pre-incubated for 15 min prior to adding 25 μl of Carbachol at 3× the EC80 for each muscarinic subtype. Alternatively, the compounds can be co-applied simultaneously with the agonist. In both assay modes, the fluorescence is recorded for 60 sec (excitation wavelength is […] and emission wavelength 540 nm) using the FLIPR 3 instrument.
(§5) The potency, efficacy and selectivity of the muscarinic compounds were evaluated by screening the compound activity across the whole family (M1 to M5 cells). Compounds were also screened for activity on other proteins such as other GPCRs and ion channels to determine selectivity on M4 receptors.
(§6) Examples of activities and efficacies of the muscarinic compounds of formulae (I, Ia, and Ib) on modulating M1 and M4 receptors are shown below in Table 8. […]

[2] = molecular target: T2, M1 muscarinic receptor (Homo sapiens, UniProt P11229); experiment: Functional mobilization of intracellular calcium (FLIPR) in CHO cells expressing M1 muscarinic receptor; assay type: cell-based; settings: for Emax: CHO, 100% efficacy is the maximum response obtained with the Carbachol control; for M1 Activity: CHO cells expressing M1, calcium mobilization
T2 construct: expressed in transfected cells; host or cells: CHO (M1-CHO recombinant cell line)
T2 sequence (P11229 1-460): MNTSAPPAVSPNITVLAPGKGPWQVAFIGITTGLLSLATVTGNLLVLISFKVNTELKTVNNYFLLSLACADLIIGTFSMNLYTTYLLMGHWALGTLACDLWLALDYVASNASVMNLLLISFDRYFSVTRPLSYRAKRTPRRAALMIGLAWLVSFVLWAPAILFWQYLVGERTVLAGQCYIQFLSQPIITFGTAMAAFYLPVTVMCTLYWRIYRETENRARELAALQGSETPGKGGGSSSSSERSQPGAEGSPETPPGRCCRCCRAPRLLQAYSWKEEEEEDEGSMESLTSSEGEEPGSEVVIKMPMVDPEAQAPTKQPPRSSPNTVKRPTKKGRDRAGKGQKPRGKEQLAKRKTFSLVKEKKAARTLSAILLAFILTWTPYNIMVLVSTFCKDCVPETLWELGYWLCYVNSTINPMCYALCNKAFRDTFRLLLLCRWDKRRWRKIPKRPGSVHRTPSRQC
Experimental: as §1, §2, §3, §4, §5, §6

| SMILES | Emax [1] [%] | Emax [2] [%] | M4 Activity [1] | M1 Activity [2] |
| --- | --- | --- | --- | --- |
| CCC(CC)NC(=O)C1=CC2(CCN(C3C[C@@H]4CC[C@@H]3C4)CC2)c2ccccc21 (stereo in doubt) [Compound No. 14, 1′-(bicyclo[2.2.1]heptan-2-yl)-N-(pentan-3-yl)spiro[indene-1,4′-piperidine]-3-carboxamide] | 25 to 100 | < 25 |  |  |
| CNC(=O)C1=CC2(CCN(CCCCSC)CC2)c2ccccc21 [compound 49] | < 25 | < 25 | + (activity was measured to be greater than 10.0 μM) | + (activity was measured to be greater than 10.0 μM) |
| CN(C)C(=O)C1=CC2(CCN(C3CCCCCC3)CC2)c2ccccc21 [compound 44] | 25 to 100 | 25 to 100 | +++ (activity was measured to be less than 2.0 μM) | + (activity was measured to be greater than 10.0 μM) |
| O=C(C1=CCC2(CCN(C3C[C@@H]4CC[C@@H]3C4)CC2)c2ccccc21)N1CCCC1 (some centres unmarked) [compound 29] | < 25 | < 25 | + (activity was measured to be greater than 10.0 μM) | + (activity was measured to be greater than 10.0 μM) |
| CC(C)NC(=O)C1=CC2(CCN(CCC(C)(C)C)CC2)c2ccccc21 [compound 70] | 25 to 100 | 25 to 100 | + (activity was measured to be greater than 10.0 μM) | + (activity was measured to be greater than 10.0 μM) |
| CCC(CC)NC(=O)C1=CC2(CCN(C3CCCCC3)CC2)c2ccccc21 [compound 73] | 25 to 100 | < 25 | ++ (activity was measured to be from 2.0 μM to 10.0 μM) | + (activity was measured to be greater than 10.0 μM) |
| CCC(CC)NC(=O)C1=CC2(CCN(CC3CC4C=CC3C4)CC2)c2ccccc21 (centres unmarked) [compound 30] | 25 to 100 | < 25 | +++ (activity was measured to be less than 2.0 μM) | + (activity was measured to be greater than 10.0 μM) |
| CCOC(=O)N1C2CCC1CC(N1CCC3(C=C(C(=O)O)c4ccccc43)CC1)C2 (centres unmarked) [compound 13] | 25 to 100 | 25 to 100 | +++ (activity was measured to be less than 2.0 μM) | +++ (activity was measured to be less than 2.0 μM) |
| CNC(=O)C1=CC2(CCN(C3C[C@@H]4CC[C@@H]3C4)CC2)c2ccccc21 (stereo in doubt) [Compound No. 38, 1′-(bicyclo[2.2.1]heptan-2-yl)-N-methylspiro[indene-1,4′-piperidine]-3-carboxamide] | 25 to 100 | 25 to 100 | +++ (activity was measured to be less than 2.0 μM) | + (activity was measured to be greater than 10.0 μM) |
| CN(C)C(=O)C1=CCC2(CCN(C3C[C@@H]4CC[C@@H]3C4)CC2)c2ccccc21 (some centres unmarked) [compound 74] | < 25 | < 25 | ++ (activity was measured to be from 2.0 μM to 10.0 μM) | + (activity was measured to be greater than 10.0 μM) |
| CCC(CC)NC(=O)C1=CC2(CCNCC2)c2ccccc21 [compound 57] | < 25 | < 25 | + (activity was measured to be greater than 10.0 μM) | + (activity was measured to be greater than 10.0 μM) |
| CCC(CC)NC(=O)C1=CC2(CCN(C3CCN(C(=O)C(C)C)CC3)CC2)c2ccccc21 [compound 22] | < 25 | < 25 | + (activity was measured to be greater than 10.0 μM) | + (activity was measured to be greater than 10.0 μM) |
| CCOC(=O)N1CCC(N2CCC3(CC=C(C(=O)NC(C)C)c4ccccc43)CC2)CC1 [compound 72] | 25 to 100 | 25 to 100 | +++ (activity was measured to be less than 2.0 μM) | +++ (activity was measured to be less than 2.0 μM) |
| CC(C)(C)CCN1CCC2(C=C(C(=O)O)c3ccccc32)CC1 [Compound No. 20, 1′-(3,3-dimethylbutyl)spiro[indene-1,4′-piperidine]-3-carboxylic acid] | < 25 | < 25 | +++ (activity was measured to be less than 2.0 μM) | + (activity was measured to be greater than 10.0 μM) |
| O=C(C1=CCC2(CCN(CC3CC4C=CC3C4)CC2)c2ccccc21)N1CCCC1 (centres unmarked) [compound 34] | < 25 | 25 to 100 | + (activity was measured to be greater than 10.0 μM) | +++ (activity was measured to be less than 2.0 μM) |
| CNC(=O)C1=CC2(CCN(CCC3CCOCC3)CC2)c2ccccc21 [compound 8] | < 25 | 25 to 100 | + (activity was measured to be greater than 10.0 μM) | + (activity was measured to be greater than 10.0 μM) |
| CCN(CC)C(=O)C1=CC2(CCN(CCC(C)(C)C)CC2)c2ccccc21 [compound 26] | < 25 | < 25 | + (activity was measured to be greater than 10.0 μM) | + (activity was measured to be greater than 10.0 μM) |
| CN(C)C(=O)C1=CC2(CCN(CC3CCCCC3)CC2)c2ccccc21 [compound 59] | 25 to 100 | < 25 | +++ (activity was measured to be less than 2.0 μM) | + (activity was measured to be greater than 10.0 μM) |
| CC(C)(C)CCN1CCC2(CC=C(C#N)c3ccccc32)CC1 [compound 51, 1′-(3,3-dimethylbutyl)-2H-spiro[naphthalene-1,4′-piperidine]-4-carbonitrile] | 25 to 100 | 25 to 100 | +++ (activity was measured to be less than 2.0 μM) | +++ (activity was measured to be less than 2.0 μM) |
